This note sets out measurements from BindingDB's records for doi:10.1074/jbc.M409068200 (Genentech, 2005).

Some results are limits rather than exact numbers.

Holding throughout (assay): Serine Protease Inhibition Assay
Holding throughout (conditions): pH 7.8; 22 °C

For experiment [1], the target named is Urokinase-type plasminogen activator (Homo sapiens, UniProt P00749). On the procedure:
(§1) The enzyme reactions were initiated by the addition of substrate, and the color developed from the release of p-nitroanilide from each chromogenic substrate was monitored continuously for 5 min at 405 nm on a microtiter plate reader. […] The apparent Ki values were then calculated according to the Cheng-Prusoff equation: Ki = IC50/1 + [S]/Km.

Experiment [2] has as its target Tissue-type plasminogen activator (Homo sapiens, UniProt P00750). As to the method:
as §1

Experiment [3] has as its target Vitamin K-dependent protein C (Homo sapiens, UniProt P04070). On the procedure:
as §1

For the next experiment, the target named is Plasma kallikrein (Homo sapiens, UniProt P03952). As to the method:
as §1

In the next experiment the target is Plasminogen (Homo sapiens, UniProt P00747). On the procedure:
as §1

A further experiment has as its target Coagulation factor X (Homo sapiens, UniProt P00742). As to the method: as §1
A further experiment deals with Prothrombin (Homo sapiens, UniProt P00734). As to the method: as §1
In a further experiment the target is T1, Serine protease 1 (Bos taurus, UniProt P00760).
T1 sequence (P00760 whole entry): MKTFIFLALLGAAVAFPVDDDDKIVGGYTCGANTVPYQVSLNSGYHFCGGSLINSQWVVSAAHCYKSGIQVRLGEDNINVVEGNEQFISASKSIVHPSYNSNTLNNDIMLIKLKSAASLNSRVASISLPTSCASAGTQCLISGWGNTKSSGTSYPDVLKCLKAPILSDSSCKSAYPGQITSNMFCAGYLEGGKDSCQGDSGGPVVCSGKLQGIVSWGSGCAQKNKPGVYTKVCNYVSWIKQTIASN
As to the method:
as §1

Chain of Plasma kallikrein (P03952 20-390 limits assumed): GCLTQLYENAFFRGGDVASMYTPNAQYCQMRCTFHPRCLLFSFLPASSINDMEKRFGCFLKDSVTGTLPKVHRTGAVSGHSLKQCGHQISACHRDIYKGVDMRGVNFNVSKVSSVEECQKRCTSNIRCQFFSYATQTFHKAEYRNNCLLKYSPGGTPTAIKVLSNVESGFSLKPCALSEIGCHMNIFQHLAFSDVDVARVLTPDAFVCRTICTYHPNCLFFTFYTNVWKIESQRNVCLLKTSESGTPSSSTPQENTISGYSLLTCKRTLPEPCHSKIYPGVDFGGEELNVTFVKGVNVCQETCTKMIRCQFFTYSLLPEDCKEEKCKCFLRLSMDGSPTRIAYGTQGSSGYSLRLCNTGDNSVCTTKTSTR
Chain of Plasma kallikrein (P03952 391-638 limits assumed): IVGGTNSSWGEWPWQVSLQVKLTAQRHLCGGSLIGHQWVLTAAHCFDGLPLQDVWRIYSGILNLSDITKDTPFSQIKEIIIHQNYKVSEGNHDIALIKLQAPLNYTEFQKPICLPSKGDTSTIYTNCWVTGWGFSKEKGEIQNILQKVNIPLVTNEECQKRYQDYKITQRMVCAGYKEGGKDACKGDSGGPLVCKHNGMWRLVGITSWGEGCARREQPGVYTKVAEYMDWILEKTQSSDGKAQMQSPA
Chain of Coagulation factor X (P00742 41-179 limits assumed): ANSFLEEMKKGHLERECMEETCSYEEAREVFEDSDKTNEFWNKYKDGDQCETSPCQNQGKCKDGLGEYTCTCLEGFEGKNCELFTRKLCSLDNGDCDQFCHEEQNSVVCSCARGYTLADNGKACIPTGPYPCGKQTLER
Chain of Coagulation factor X (P00742 235-488 limits assumed): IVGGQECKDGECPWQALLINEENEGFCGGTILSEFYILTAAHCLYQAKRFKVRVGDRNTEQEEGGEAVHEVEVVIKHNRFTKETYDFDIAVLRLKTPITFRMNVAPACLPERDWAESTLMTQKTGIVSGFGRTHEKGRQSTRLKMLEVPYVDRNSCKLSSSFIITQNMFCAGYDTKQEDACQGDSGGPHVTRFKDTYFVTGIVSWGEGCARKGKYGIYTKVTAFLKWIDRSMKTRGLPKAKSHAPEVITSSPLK
Chain of Tissue-type plasminogen activator (P00750 whole entry): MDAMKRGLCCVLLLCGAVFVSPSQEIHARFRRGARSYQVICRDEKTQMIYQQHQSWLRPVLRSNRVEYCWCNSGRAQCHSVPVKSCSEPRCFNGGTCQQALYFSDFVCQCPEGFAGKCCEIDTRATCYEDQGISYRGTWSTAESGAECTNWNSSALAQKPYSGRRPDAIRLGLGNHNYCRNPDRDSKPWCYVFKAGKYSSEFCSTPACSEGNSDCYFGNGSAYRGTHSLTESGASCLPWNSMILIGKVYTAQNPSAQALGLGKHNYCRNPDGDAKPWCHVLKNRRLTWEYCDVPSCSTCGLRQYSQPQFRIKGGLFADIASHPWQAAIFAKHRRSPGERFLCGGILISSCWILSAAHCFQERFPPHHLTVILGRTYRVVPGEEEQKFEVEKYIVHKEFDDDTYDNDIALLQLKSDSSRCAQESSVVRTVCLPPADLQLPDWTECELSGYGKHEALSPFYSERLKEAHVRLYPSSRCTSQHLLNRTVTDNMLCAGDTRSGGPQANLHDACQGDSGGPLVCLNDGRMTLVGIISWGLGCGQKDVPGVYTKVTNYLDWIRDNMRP
Chain of Vitamin K-dependent protein C (P04070 43-197 limits assumed): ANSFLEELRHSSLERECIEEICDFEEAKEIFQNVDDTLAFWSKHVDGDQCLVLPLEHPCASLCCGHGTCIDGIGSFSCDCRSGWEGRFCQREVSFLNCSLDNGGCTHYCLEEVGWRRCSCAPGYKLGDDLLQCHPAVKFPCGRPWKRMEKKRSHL
Chain of Vitamin K-dependent protein C (P04070 212-461 limits assumed): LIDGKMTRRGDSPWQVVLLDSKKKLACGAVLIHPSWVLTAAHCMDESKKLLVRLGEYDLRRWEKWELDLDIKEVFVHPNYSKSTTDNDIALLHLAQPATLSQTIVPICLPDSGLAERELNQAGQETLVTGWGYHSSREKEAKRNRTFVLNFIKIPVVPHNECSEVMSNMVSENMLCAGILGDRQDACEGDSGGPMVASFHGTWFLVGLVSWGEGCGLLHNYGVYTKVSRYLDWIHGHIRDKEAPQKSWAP
Chain of Plasminogen (P00747 97-580 limits assumed): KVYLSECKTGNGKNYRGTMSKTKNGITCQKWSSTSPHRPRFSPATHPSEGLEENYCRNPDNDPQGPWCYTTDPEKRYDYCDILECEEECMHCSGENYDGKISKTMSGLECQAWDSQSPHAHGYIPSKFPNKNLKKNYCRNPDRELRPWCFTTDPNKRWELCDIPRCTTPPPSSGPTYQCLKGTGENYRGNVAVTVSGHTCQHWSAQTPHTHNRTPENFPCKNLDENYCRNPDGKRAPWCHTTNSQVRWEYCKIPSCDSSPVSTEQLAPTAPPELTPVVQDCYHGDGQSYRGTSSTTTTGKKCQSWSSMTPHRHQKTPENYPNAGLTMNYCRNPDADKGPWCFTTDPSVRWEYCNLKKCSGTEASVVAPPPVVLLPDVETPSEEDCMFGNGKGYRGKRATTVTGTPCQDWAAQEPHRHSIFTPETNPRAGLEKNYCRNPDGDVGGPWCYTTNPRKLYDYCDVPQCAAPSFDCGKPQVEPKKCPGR
Chain of Plasminogen (P00747 581-810 limits assumed): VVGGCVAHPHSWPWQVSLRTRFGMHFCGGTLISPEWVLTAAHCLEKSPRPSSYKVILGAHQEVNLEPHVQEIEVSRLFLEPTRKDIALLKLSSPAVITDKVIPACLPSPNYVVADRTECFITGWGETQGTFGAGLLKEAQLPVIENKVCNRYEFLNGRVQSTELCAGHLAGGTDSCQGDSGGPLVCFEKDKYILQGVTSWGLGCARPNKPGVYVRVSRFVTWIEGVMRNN

What is called Ki is a dissociation constant, usually derived from enzyme kinetics or from competition with a known ligand. A low value points to higher affinity. Consider `CCOc1cc(OCC)c(F)c([C@@H](Nc2ccc(C(=N)N)c(O)c2)C(=O)NS(=O)(=O)c2cccc(N)c2)c1` [(2R)-N-[(3-aminobenzene)sulfonyl]-2-[(4-carbamimidoyl-3-hydroxyphenyl)amino]-2-(3,5-diethoxy-2-fluorophenyl)acetamide], for which the inhibition constant Ki in experiment [1] was more than 3.4 µM; in experiment [2], more than 3.9 µM; in experiment [3] it was 0.087 µM; at Plasma kallikrein, 0.114 µM; on Plasminogen, 1.2 µM; on Coagulation factor X, more than 3.5 µM. Moreover, the Ki at Prothrombin came to 3.6 µM; at Serine protease 1 it was 4 µM.
